The values that follow are results of earlier work, collected in US20240024159A1, “POSTERIOR CHAMBER PLACEMENT OF SUSTAINED RELEASE IMPLANT” (Allergan, Inc., priority 2020, published 2024).

SMILES strings stand for the structures.

The subject of the data set is prostaglandin (PG) sensitive receptors.

Consider `CCNC(=O)CCC/C=C\C[C@@H]1[C@@H](/C=C/[C@@H](O)CCc2ccccc2)[C@H](O)C[C@@H]1O` [bimatoprost], for which the “interaction with prostaglandin (PG) sensitive receptors” value is recorded as “no meaningful interaction”.
